Measured values as given in PMC11802874, “The hypolipidemic effect of MI-883, the combined CAR agonist/ PXR antagonist, in diet-induced hypercholesterolemia model” (Nature Communications, 2025).
Several values for one entry are separate records, joined by “and”; a condition that tells them apart may be missing. Equal values may be shown once.

What was measured:
[1] = system: humanized PXR-CAR-CYP3A4/3A7 mice fed HFD; assay: High-fat diet (HFD) study: weights, food intake, plasma biochemistry, histology; assay type: in vivo, mouse; set-up: BW (Fig 4b) / LW (Fig 4b) / LDL (Fig. 4e) / HDL (Fig. 4e) / TG (Fig. 4e) / Chol (Fig. 4e) / Glu (Fig. 4e) / food intake (Fig 4c) / AST / ALT / ALB / ALP / LDH / Urea / Uric acid / Fe / Bilirubin / CREZ / BW: unit not given here; settings: for BW: FigS12c, group mean
Procedure: For experiment involving a HFD in the model of diet-induced metabolic syndrome and type 2 diabetes with hypercholesterolemia, both male and female mice at the age of 10–15 weeks were pretreated for 8 weeks with HFD (E15186 EF R/M with 30% fat, ssniff ®, Soest, Germany) containing 30.1% crude fat, 20.8% protein and 171 mg/kg of cholesterol, ad libitum (Fig. 4a). Mice were then randomly assigned to MI-883 or control groups (17 male animals per group for the control or MI-883-treated group, 15 female animals per group for control and MI-883 treated groups, respectively). They were administered via oral gavage with either MI-883 treatment (5 mg/kg, 3x per week on Mo, We, Fri) or vehicle (5%DMSO/5%PEG300/90%corn oil) while still fed with HFD. Mice were sacrificed after 4 weeks of treatment.
Mice were weighted and tissues (livers, blood, duodenum, jejunum, ileum, white fat) were removed, weighted and snap frozen in liquid nitrogen and stored at –80 °C until analysis. Blood was collected from the retro-orbital sinus of mice under isoflurane anesthesia into heparin-coated tubes (Kabe Laboratortechnik GmbH, Nümbrecht-Elsenroth, Germany) after 3 h fasting and analyzed on AU480 biochemistry analyzer (Beckman Coulter, Brea, USA). Sample preparation for bile acid and cholesterol analyses from tissues or feces is described below. One of the liver lobes was fixed in formalin, embedded in paraffin blocks, sectioned, and subjected to H&E staining. Blood was analyzed as described in Supplementary, Chapter 10.
Blood was collected from the retro-orbital sinus of mice under isoflurane anesthesia into heparin-coated tubes (Kabe Laboratortechnik GmbH, Nümbrecht-Elsenroth, Germany) after 3 hours of fasting. Blood was left for 10 minutes at room temperature, and then kept on ice until centrifugation (5,000 g at 4°C for 10 minutes). The collected plasma was stored at -80 °C until measurement. Lipoprotein levels and other plasmatic parameters were measured on an AU480 biochemistry analyzer (Beckman Coulter, Brea, USA).

rats = assay: Repeated dose 28-day oral toxicity study in rats (OECD 407, non-GLP); assay type: in vivo; settings: up to 10 mg/kg
Procedure: (§1) A repeated dose 28-day oral toxicity study in Rats (Non–GLP Study) was carried out according to OECD Guideline for Testing of Chemicals No. 407 and relevant Test Facility SOPs at the Institute of Physiology, Academy of Sciences, Czech Republic as a service. The report is available after request. […] No clinical changes were observed during the administration period or the recovery period in the two selected groups. […]

[2] = as above; assay type: in vivo; settings: rat, in vivo, 10 mg/kg; 28 days per os, rats
Procedure: as §1

[3] = HFD and HCD studies (Fig. 4e, h)
[4] = HFD, MI883 HFD, individual animals
[5] = chow / vehicle / MI-883, individual animals
[6] = individual animals, MI-883 vs vehicle
[7] = normal diet, individual animals

For `NC(=O)c1cc(Cn2cc(-c3c(-c4ccc(Cl)cc4)nc4cc(F)ccn34)nn2)ccc1Cl` [MI-883, 2-chloro-5-((4-(2-(4-chlorophenyl)-7-fluoroimidazo[1,2-a]pyridin-3-yl)-1H-1,2,3-triazol-1-yl)methyl)benzamide], the BW ([1]; time point 0) was 100, the BW ([1]; time point 3) was 99.94 and the BW ([1]; time point 4) was 99.69. It also gave a BW ([1]; time point 7) of 98.81, a BW ([1]; time point 8) of 98.7 and a BW ([1]; time point 9) of 99.01. The BW ([1]; time point 11) was 97.62, the BW ([1]; time point 14) was 97.62 and the BW ([1]; time point 16) was 98.66. For the same molecule, the BW ([1]; time point 18) was 95.35, the BW ([1]; time point 21) was 95.54 and the BW ([1]; time point 25) was 95.05. The “hepatic histology, morphology, steatosis with ballooning cells” value ([1]; H&E staining) was “did not observe affected hepatic histology, morphology, and steatosis”, the “plasma HDL cholesterol concentrations in males” value ([1]; HFD and HCD studies) was “decrease” and the “plasma LDL cholesterol levels” value [1, 3] was “systematic decrease”. The “total plasma cholesterol concentration” value [1, 3] was “systematic decrease”, the ALB ([1]; HFD female, individual animals) was 24.33 and 24.2 and 23.24 and 26.55 and 24.9 and the ALP ([1]; HFD female, individual animals) was 113 and 92 and 67 and 82 and 103 and 98 and 123 and 110 and 111 and 88 and 70 and 60 and 74 and 94 and 83 and 97. The ALT ([1]; HFD female, individual animals) was 22 and 33 and 42 and 31 and 44 and 26 and 25 and 20 and 30 and 27, the AST ([1]; HFD female, individual animals) was 36 and 56 and 60 and 42 and 80 and 46 and 43 and 45 and 48 and 52 and the Bilirubin ([1]; HFD female, individual animals) was 1.91 and 1.99 and 1.49 and 1.73 and 2.08 and 1.88 and 2.79 and 0.89 and 1.63 and 0.8 and 1.21 and 0.66 and 1.02 and 0.93. For the same molecule, the CREZ ([1]; HFD female, individual animals) was 8.81 and 10.944 and 9.86 and 9.877 and 9.32 and 9.613 and 6.396, the Fe ([1]; HFD female, individual animals) was 19.66 and 16.34 and 16.57 and 13.12 and 20.06 and 22.23 and 20.85 and the LDH ([1]; HFD female, individual animals) was 105.53 and 141.23 and 148.87 and 187.77 and 168.5 and 171.83 and 139.86 and 141.62 and 132.6 and 117.06 and 243.58 and 169.43 and 199.88 and 175.99 and 186.41 and 240.46 and 159.98. For the same molecule, the Urea ([1]; HFD female, individual animals) was 6.32 and 7.96 and 9.13 and 6.71 and 5.59 and 7.45 and 7.35 and 5.3, the “body weight or food intake” value ([1]; HFD, 5 mg/kg 3× per week p.o., one month) was “no significant effect” and the “liver weight (LW) and liver-to-body weight (LW/BW)” value ([1]; HFD, after 1-month application) was “increase”. For the same molecule, the ALB [1, 4] was 30.28 and 28.44 and 27.19 and 26.19 and 27.85 and 26.86 and 29.5 and 28.87 and 29.11 and 28.18 and 27.81 and 29.6 and 31.94 and 31.6 and 25.37 and 30.94, the ALP [1, 4] was 46 and 65 and 58 and 53 and 57 and 59 and 87 and 78 and 134 and 85 and 147 and 42 and 80 and 203 and 48 and 62 and 47 and the ALT [1, 4] was 111 and 104 and 91 and 82 and 86 and 81 and 194 and 185 and 231 and 101 and 144 and 333 and 40 and 171 and 279 and 78 and 136 and 35. The AST [1, 4] was 61 and 103 and 71 and 75 and 84 and 65 and 111 and 106 and 115 and 97 and 60 and 215 and 57 and 86 and 96 and 62, the Bilirubin [1, 4] was 6.24 and 2.33 and 2.77 and 2.03 and 2.43 and 2.14 and 2.07 and 1.65 and 0.69 and 0.83 and 0.78 and 2.19 and 1.62 and 2.1 and 2.2 and 2.29 and 2.82 and 3.89 and the CREZ [1, 4] was 6.64 and 6.515 and 6.651 and 6.864 and 6.4 and 11.788 and 9.016 and 8.705 and 10.01 and 10.479 and 10.075 and 9.458 and 9.179 and 10.214 and 7.193 and 7.711. The Fe [1, 4] was 25.96 and 27.35 and 19.07 and 29.46 and 21.87 and 40.46 and 33.38 and 35.58 and 29.04 and 23.68 and 27.39 and 20.96 and 37.12 and 36.65 and 34.04 and 37.51 and 32.98 and 21.67 and 30.02 and 31.93, the LDH [1, 4] was 198.22 and 263.31 and 253.93 and 193.25 and 209.81 and 272.82 and 399.88 and 396.59 and 572.08 and 407.53 and 224.02 and 465.2 and 571.59 and 132.99 and 401.74 and 1012.86 and 180.55 and 261.31 and 251.38 and 204.74 and the Urea [1, 4] was 8.86 and 6.88 and 6.46 and 8.34 and 10.25 and 5.64 and 6.34 and 6.16 and 6.83 and 6.9 and 7.15 and 6.75 and 6.76 and 5.98 and 5.4. For the same molecule, the Uric acid [1, 4] was 34.39 and 75.29 and 81.6 and 51.23 and 51.93 and 56.87 and 65.17 and 44.52 and 78.74 and 74.95 and 74.71 and 112.08 and 32.89 and 40.5 and 30.33 and 46.79 and 41.52 and 45.58 and 40.84, the “food intake (Fig 4c)” value ([1]; MI-883 vs vehicle line) was 2.1 and 3.3 and 2.8 and 2.6 and 2.7 and the “triglycerides and glucose concentrations in males” value ([1]; both studies) was “did not see any significant effects”. For the same molecule, the “signs of hepatotoxicity or nephrotoxicity based on biochemical parameters” value ([1]; both studies (HFD, HCD)) was “did not observe”, the “other plasma biochemical parameters” value ([1]; both studies, Supplementary Fig. 11) was “did not impact” and the “Chol (Fig. 4e)” value [1, 5] was 4.25 and 4.28 and 2.95 and 3.55 and 3.29 and 4.43 and 4.16 and 4.71 and 4.02 and 3.77 and 3.86 and 4.66 and 3.96 and 4.68 and 3.68. The “Glu (Fig. 4e)” value [1, 5] was 10.58 and 14.95 and 11.18 and 14.52 and 13.99 and 12.86 and 13.45 and 16.77 and 19.28 and 18.71 and 17.05 and 15.9 and 14.58 and 9.64 and 14.8 and 12.42, the “HDL (Fig. 4e)” value [1, 5] was 3.307 and 3.291 and 2.143 and 2.747 and 3.405 and 3.464 and 3.127 and 2.59 and 3.382 and 3.348 and 3.749 and 3.32 and 3.251 and 2.944 and 3.197 and 2.432 and 3.457 and 2.752 and the “LDL (Fig. 4e)” value [1, 5] was 0.69 and 0.66 and 0.46 and 0.49 and 0.67 and 0.52 and 0.82 and 0.7 and 1.08 and 0.75 and 0.63 and 0.85 and 1.01 and 0.81. For the same molecule, the “TG (Fig. 4e)” value [1, 5] was 3.307 and 3.291 and 2.143 and 2.747 and 3.405 and 3.464 and 3.127 and 2.59 and 3.382 and 3.348 and 3.749 and 3.32 and 3.251 and 2.944 and 3.197 and 2.432 and 3.457 and 2.752, the “BW (Fig 4b)” value [1, 6] was 36.3 and 38.1 and 36.8 and 38.8 and 38 and 34.3 and 36.4 and 31 and 45.2 and 42 and 35.4 and 38.9 and 39.5 and 42.8 and 39.3 and 39.9 and 40 and 37 and 42.6 and 40.9 and 39.2 and 38.5 and the “LW (Fig 4b)” value [1, 6] was 2.77 and 2.32 and 1.65 and 2.28 and 2.58 and 2.48 and 2.14 and 2.06 and 1.7 and 3.5 and 3.3 and 1.85 and 3.4 and 3.1 and 4.26 and 3.42 and 3.33 and 3.06 and 2.35 and 3.38 and 2.25 and 3.12 and 1.56. The diarrhea ([1]; mouse, in vivo) was “did not observe any diarrhea”, the “Chol (Fig. 4e)” value [1, 7] was 1.85 and 1.75 and the “Glu (Fig. 4e)” value [1, 7] was 12.37 and 16.62. For the same molecule, the “HDL (Fig. 4e)” value [1, 7] was 1.205 and 1.168, the “LDL (Fig. 4e)” value [1, 7] was 0.45 and 0.42 and the “TG (Fig. 4e)” value [1, 7] was 1.205 and 1.168. The “toxicity in 28-day oral study in rats” value (rats) was “no toxicity”, the “toxicity in 28-day oral study in rats” value (rats; listed as MI833) was “No clinical signs of toxicity” and the NOAEL at 28 days [2] was > 10 mg/kg.
